# Measured values reported in PMC10222120, “Inhibition Studies on Human and Mycobacterial Carbonic Anhydrases with N-((4-Sulfamoylphenyl)carbamothioyl) Amides” (Molecules, 2023).
# What was measured:
# Test in all cases: stopped-flow CO2 hydrase assay
# Format in all cases: biochemical
# MtCA2 = MtCA2 (Mycobacterium tuberculosis, UniProt P9WPJ9); conditions: read-out: KI (nM) ^a / MtCA2 (β-CA)
# hCA VII = biological target: T1, hCA VII (Homo sapiens, UniProt P43166); conditions: read-out: KI (nM) ^a / hCA VII (α-CA)
# T1 construct: gene CA7; recombinant, obtained in-house; cytosolic alpha-CA
# T1 sequence (P43166 whole entry): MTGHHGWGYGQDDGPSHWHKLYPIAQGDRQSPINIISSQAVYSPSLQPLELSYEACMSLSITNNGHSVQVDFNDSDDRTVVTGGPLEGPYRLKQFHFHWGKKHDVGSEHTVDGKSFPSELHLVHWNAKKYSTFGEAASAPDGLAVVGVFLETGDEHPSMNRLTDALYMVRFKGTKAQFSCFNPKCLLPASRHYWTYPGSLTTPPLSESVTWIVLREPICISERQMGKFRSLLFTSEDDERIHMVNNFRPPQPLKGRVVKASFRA
# From the text: stopped-flow CO2 hydrase assay on hCA VII
# hCA II = biological target: T2, hCA II (Homo sapiens, UniProt P00918); conditions: read-out: KI (nM) ^a / hCA II (α-CA)
# T2 construct: gene CA2; recombinant, obtained in-house; cytosolic alpha-CA
# From the text: stopped-flow CO2 hydrase assay on hCA II
# MtCA1 = MtCA1 (Mycobacterium tuberculosis, UniProt P9WPJ7); conditions: read-out: KI (nM) ^a / MtCA1 (β-CA)
# Chain of MtCA1 (P9WPJ7 2-163): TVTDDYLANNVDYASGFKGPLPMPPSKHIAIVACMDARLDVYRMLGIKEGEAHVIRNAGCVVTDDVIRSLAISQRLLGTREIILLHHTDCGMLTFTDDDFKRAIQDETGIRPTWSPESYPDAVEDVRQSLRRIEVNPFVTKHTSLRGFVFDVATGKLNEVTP
# hCA I = biological target: T3, hCA I (Homo sapiens, UniProt P00915); conditions: read-out: KI (nM) ^a / hCA I (α-CA)
# T3 construct: gene CA1; recombinant, obtained in-house; cytosolic alpha-CA
# T3 sequence (P00915 2-261): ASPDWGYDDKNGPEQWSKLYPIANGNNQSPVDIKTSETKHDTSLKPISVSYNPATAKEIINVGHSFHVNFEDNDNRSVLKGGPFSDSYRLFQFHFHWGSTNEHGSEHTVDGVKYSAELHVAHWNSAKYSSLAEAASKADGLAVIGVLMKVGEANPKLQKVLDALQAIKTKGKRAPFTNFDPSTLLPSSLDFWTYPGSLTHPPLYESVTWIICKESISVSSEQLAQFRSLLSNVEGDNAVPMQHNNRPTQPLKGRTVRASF
# From the text: stopped-flow CO2 hydrase assay on hCA I
# MtCA3 = biological target: T4, MtCA3 (Mycobacterium tuberculosis, UniProt P96878); conditions: CO2 […]; […] TRIS pH […]; […] Na2SO4; […] h preincubation at room temperature; read-out: KI (nM) ^a / MtCA3 (β-CA)
# T4 construct: gene Rv3273
# T4 sequence (P96878 555-764 limits assumed): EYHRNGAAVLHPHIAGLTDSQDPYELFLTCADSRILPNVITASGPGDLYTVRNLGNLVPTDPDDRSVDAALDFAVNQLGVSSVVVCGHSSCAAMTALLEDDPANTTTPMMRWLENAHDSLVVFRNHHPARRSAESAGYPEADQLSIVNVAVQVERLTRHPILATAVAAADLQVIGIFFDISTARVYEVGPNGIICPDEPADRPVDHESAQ
# From the text: stopped-flow CO2 hydrase assay on MtCA3
# Chain of MtCA2 (P9WPJ9 whole entry, looked up): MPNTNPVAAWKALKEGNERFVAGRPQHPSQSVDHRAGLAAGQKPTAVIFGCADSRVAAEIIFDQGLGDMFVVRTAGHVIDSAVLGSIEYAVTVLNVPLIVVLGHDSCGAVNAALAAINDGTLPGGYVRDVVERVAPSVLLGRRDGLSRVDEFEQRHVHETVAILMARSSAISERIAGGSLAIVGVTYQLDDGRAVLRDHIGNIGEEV
SMILES,Ki (MtCA2),Ki (hCA VII),Ki (hCA II),Ki (MtCA1),Ki (hCA I),Ki (MtCA3)
"CC(=O)NC(=S)Nc1ccc(S(N)(=O)=O)cc1 [3a, N-((4-Sulfamoylphenyl)carbamothioyl)acetamide]",4.4 nM,13.5 nM,78.7 nM,897 nM,85.2 nM,610 nM
"CCC(=O)NC(=S)Nc1ccc(S(N)(=O)=O)cc1 [3b, N-((4-Sulfamoylphenyl)carbamothioyl)propionamide]",5.4 nM,2.8 nM,35.9 nM,252 nM,58.3 nM,806 nM
"CCCC(=O)NC(=S)Nc1ccc(S(N)(=O)=O)cc1 [3c, N-((4-Sulfamoylphenyl)carbamothioyl)butyramide]",7.6 nM,3 nM,7.7 nM,784 nM,50.3 nM,9400 nM
"NS(=O)(=O)c1ccc(NC(=S)NC(=O)C2CC2)cc1 [3d, N-((4-Sulfamoylphenyl)carbamothioyl)cyclopropanecarboxamide]",4.2 nM,1.9 nM,384 nM,95.2 nM,87.4 nM,6280 nM
"CC(C)C(=O)NC(=S)Nc1ccc(S(N)(=O)=O)cc1 [3e, N-((4-sulfamoylphenyl)carbamothioyl)isobutyramide]",57.1 nM,1.1 nM,8.9 nM,369 nM,72.7 nM,3670 nM
"CC(C)CC(=O)NC(=S)Nc1ccc(S(N)(=O)=O)cc1 [3f, 3-methyl-N-((4-sulfamoylphenyl)carbamothioyl)butanamide]",21.1 nM,2.1 nM,5.3 nM,782 nM,36.4 nM,8390 nM
"CCCCCC(=O)NC(=S)Nc1ccc(S(N)(=O)=O)cc1 [3g, N-((4-sulfamoylphenyl)carbamothioyl)hexanamide]",3.4 nM,3.2 nM,46.5 nM,3510 nM,13.3 nM,719 nM
"NS(=O)(=O)c1ccc(NC(=S)NC(=O)C2CCCCC2)cc1 [3h, N-((4-Sulfamoylphenyl)carbamothioyl)cyclohexanecarboxamide]",8.4 nM,2.2 nM,21.7 nM,6670 nM,67.8 nM,7140 nM
"NS(=O)(=O)c1ccc(NC(=S)NC(=O)Cc2cccc3ccccc23)cc1 [3i, 2-(Naphthalen-1-yl)-N-((4-sulfamoylphenyl)carbamothioyl)acetamide]",4.6 nM,2.6 nM,9.7 nM,962 nM,60.5 nM,2130 nM
"C/C=C/C(=O)NC(=S)Nc1ccc(S(N)(=O)=O)cc1 [3j, N-((4-Sulfamoylphenyl)carbamothioyl)but-2-enamide]",9.2 nM,10.3 nM,64.6 nM,2420 nM,69.4 nM,851 nM
"NS(=O)(=O)c1ccc(NC(=S)NC(=O)/C=C/c2ccccc2)cc1 [3k, N-((4-Sulfamoylphenyl)carbamothioyl)cinnamamide]",8.1 nM,3.1 nM,9.2 nM,224 nM,47.9 nM,447 nM
"NS(=O)(=O)c1ccc(NC(=S)NC(=O)c2ccc([N+](=O)[O-])cc2)cc1 [3l, 4-nitro-N-((4-sulfamoylphenyl)carbamothioyl)benzamide]",4.8 nM,2.5 nM,6.8 nM,868 nM,87.6 nM,5280 nM
